Measurements published in paper PMC4748848, “Pharmacokinetic/Toxicity Properties of the New Anti-Staphylococcal Lead Compound SK-03-92” (Antibiotics, 2015).
Values after ≈ are worked out from the molar mass of the structure shown. Values joined by “and” are separate entries in the source; they are usually repeats but may differ in a detail not shown here. Identical values can stand only once. “Also recorded” adds a separate entry of the source. Like-named read-outs stand apart in the source and are kept apart here.

Assays:
[1] = Relative bioavailability / single dose PK, oral; format: in vivo, BALB/c mice; conditions: mice
[2] = Single dose PK assay, ip; format: in vivo, BALB/c mice; conditions: mice
Method: An initial single dose PK experiment was performed using 100 μg/g of formulated SK-03-92 administered ip to twenty-one female, 5–6 week old BALB/c mice (7 per cohort for 3 cohorts, NCI) under parameters established previously. Three animals were used as a control group and received blank vehicle, whereas three mice per time point received 100 μg/g SK-03-92 ip and were sacrificed with blood collected at the 15, 30, 45, 60, 75, and 90 min time points by warming the tails of the mice in warm water, lancing the lateral saphenous tail vein, and collecting the blood (up to 150 μL) into microvette tubes (Sarstedt) containing EDTA or terminal bleed into vacucontainers containing EDTA as an anti-coagulant. Plasma was separated from packed blood cells by centrifugation (600× g) and stored at −70 °C until needed for HPLC analysis. Samples were analyzed with a Shimadzu Prominence HPLC system (Kyoto, Japan) with a Halo C18 column (MAC-MOD Analytical Inc., Chadds Ford, PA, USA). A mobile phase of 62% acetonitrile/38% water, isocratic program of 62% acetonitrile for 20 min, and flow rate of 0.75 mL/min with an injection volume of 10 μL and a retention time of 5.4 min were used. The standard curve for SK-03-92 was linear from 0.0098 to 2.5 μg/mL in plasma. Each chromatogram was collected and integrated to estimate the peak area of analyte by EZ Chrom® software (version.1.0, Agilent Technologies Inc., Santa Clara, CA, USA). The ratio of peak area of SK-03-92 was calculated to estimate the drug concentration(s) using a pre-built calibration curve. Major pharmacokinetic parameters were calculated using the noncompartmental analysis module of WinNonlin® (version 5.1, Pharsight Corp., Princeton, NJ, USA) under sparsely sampling mode.

[3] = test system: murine monocytic J774A.1; assay: MTT cytotoxicity assay, J774A.1; format: cell-based; conditions: Mus musculus, J774.A1; J774A.1 cells
Method: (§1) Initial in vitro safety testing of SK-03-92 was performed with an MTT [3-(4,5-dimethylthiazol-2-yl)-2,5-diphenyltetrazolium bromide] assay (9, American Type Culture Collection) for several tissue culture cell lines (murine monocytic J774A.1, human monocytic U937, human kidney epithelial 293, and human bladder epithelial T24) using mitomycin C (Sigma, St. Louis, MO, USA) and DMSO alone as positive and negative controls, respectively. Assays were done a total of three times per tissue culture cell line.

[4] = Multi-dosing PK, two doses per day for three days; format: in vivo; conditions: mice
Method: (§2) First, a five-day PK study with SK-03-92 orally administered to female 5-6 week old BALB/c mice was conducted. Three mice received 300 μL of blank vehicle by oral administration. Doses of 100 μg/g SK-03-92 were given orally each day in the vehicle. Blood was collected from three mice at time points 15, 30, 45, 60, 75, and 90 min after administration. Body weight was monitored every day before SK-03-92 administration. Plasma was prepared and stored at −70 °C until analyzed by HPLC. In an extension of this PK study to two-weeks following oral administration of SK-03-92, six mice were dosed in the test (SK-03-92) arm and six vehicle control mice in the other arm. Lastly, a multi-dosing PK analysis was done using two 51-μg/g doses of SK-03-92 per day (given four hours apart) over the course of three days in five mice.

[5] = test system: human monocytic U937; assay: MTT cytotoxicity assay, U937; format: cell-based; conditions: U-937, U937 cells
Method: as §1

[6] = test system: S. aureus (including MRSA and VISA strains); parameters: method as in PMID 21739106; conditions: cited from earlier work
[7] = test system: human kidney epithelial 293; assay: MTT cytotoxicity assay, 293; format: cell-based; conditions: cell line printed as 292
Method: as §1

[8] = test system: several mammalian cell lines; assay: MTT cytotoxicity, cell lines overall and therapeutic index; format: cell-based; conditions: read-out: IC50 in vitro
Method: as §1

[9] = Solubility in vehicles by HPLC; format: physicochemical; conditions: for solubility: HPLC
Method: An HPLC method was developed on a Halo C18 4.6 × […], 2.7 μm column (MAC-MOD Analytical Inc., Chadds Ford, PA, USA) for the detection and quantitation of SK-03-92. The method was developed using the information obtained from a scouting gradient of 5%–100% acetonitrile over 35 min. A UV spectrum of SK-03-92 was obtained from the scouting gradient and the observed maximum for SK-03-92 was 335 nm, with a local maximum of 224 nm also observed. The 335 nm maximum wavelength was used for the quantitation of SK-03-92, and the 224 nm local maximum wavelength was used to monitor for possible formation of degradation products not visible at the 335 nm wavelength. Flow rate was 0.750 mL/min and injection volume was 10 μL. The mobile phase was 62% acetonitrile (Fisher, Hanover Park, IL, USA):38% water (Milli-Q UV plus) and the isocratic program was 62% acetonitrile:38% water for 20 min. Acquisition time was 10 min and room temperature retention time was 5.4 min. Standards of SK-03-92 were prepared in acetonitrile at concentrations of 0.05–0.005 mg/mL.

[10] = test system: Swiss Webster mice; assay: Initial safety testing in mice, escalating ip dosing (OECD); format: in vivo
Method: Three female 5–9 week old Swiss Webster mice (Harlan) per drug concentration were injected intraperitoneally (ip) with increasing concentrations of SK-03-92: 5, 50, 300, and 2000 mg/kg according to OECD [10]. The lowest concentration of drug was used first. Overt toxicity (e.g., altered gait, ungroomed, significant weight loss) was monitored.

[11] = test system: plasma proteins; assay: Plasma protein binding assay; format: in vitro ADME, mice; conditions: mouse plasma; read-out: bound to plasma proteins (converted)
Method: Plasma collected from EDTA treated blood from six SK-03-92 dosed mice was added to methyl tert-butyl ether (MTBE) to precipitate the proteins. The precipitated proteins were separated from the remainder of the plasma by centrifugation (14,000× g for 20 min) through a Microcon 10K filter (Millipore) and dried under a stream of nitrogen gas. The dried product was suspended in 62% acetonitrile/38% ddH2O and the AUC was quantified and correlated with the initial concentration of SK-03-92 present in the plasma.

[12] = Five-day multi-dose oral PK study; format: in vivo; conditions: female, BALB/c, mouse, plasma, mice, five-day oral 100 μg/g each day
Method: as §2

[13] = Two-week multi-dose oral PK study; format: in vivo
Method: as §2

[14] = test system: human bladder epithelial T24; assay: MTT cytotoxicity assay, T24; format: cell-based; conditions: T-24, T24 cells
Method: as §1

[15] = cited from earlier work
[16] = test system: mice, rats, and humans; conditions: cited from earlier work

COc1cc(O)cc(/C=C/c2cc3ccccc3s2)c1 [SK-03-92, (E)-3-(2-(benzo[b]thiophen-2-yl)vinyl)-5-methoxyphenol]
half-life ([1]; female, BALB/c, mouse, plasma, po, 100 μg/g, oral, single dose 100 μg/g, read-out: Half-Life): 30 min
Tmax ([1]; female, BALB/c, mouse, plasma, po, 100 μg/g, oral, single dose 100 μg/g, read-out: Tmax (converted)): 22 min
concentration at 15 min ([1]; female, BALB/c, mouse, plasma, 100 μg/g oral, after 15 min, read-out: level detected in mouse plasma): 740 ng/g
concentration at 30 min ([1]; female, BALB/c, mouse, plasma, 100 μg/g oral, by 30 min, read-out: level detected in mouse plasma): 126 ng/g
AUC(0-inf) ([1]; female, BALB/c, mouse, plasma, oral, single dose 100 μg/g, read-out: AUCINF_obs (converted)): 85.7 ng·h/mL
Cmax ([1]; female, BALB/c, mouse, po, 100 μg/g, orally administered, plasma): 370 ng/mL
toxicity signs ([1]; 100 μg/g oral): no toxicity signs were observed
plasma concentrations ([1]; 75 min after oral gavage): negligible levels
oral Cmax relative to Cmax of ip-administered drug ([1]; oral vs ip): approximately 25%
Cl_F_obs ([1]; oral, single dose 100 μg/g): 21.00 ± 6.71 mL/min/g
Tmax ([1]; oral, single dose 100 μg/g): 21.43 ± 11.80 min
Vz_F_obs ([1]; oral, single dose 100 μg/g): 810.67 ± 173.87 mL/g
half-life ([1]; oral, single dose 100 μg/g): 30.40 ± 17.81 min
concentration at 30 min ([2]; female, BALB/c, mouse, plasma, 100 μg/g, 30 min after ip injection): 1640 ng/mL
concentration at 90 min ([2]; female, BALB/c, mouse, plasma, 100 μg/g, within 90 min of ip injection): 149 ng/mL
half-life ([2]; female, BALB/c, mouse, plasma, intraperitoneal, oral, 100 μg/g, single dose 100 μg/g, route not given, read-out: drug half-life): 20 to 30 min
half-life ([2]; female, BALB/c, mouse, plasma, ip, 100 μg/g, ip, single dose 100 μg/g, read-out: Half-Life): 22 min
Tmax ([2]; female, BALB/c, mouse, plasma, ip, single dose 100 μg/g): 30 min
AUC(0-inf) ([2]; female, BALB/c, mouse, plasma, ip, single dose 100 μg/g, read-out: AUCINF_obs (converted)): 1170 ng·h/mL
Cmax ([2]; female, BALB/c, mouse, ip, single dose 100 μg/g, plasma): 1640 ± 590 ng/mL
time to breakdown into metabolic byproducts ([2]; after ip or oral delivery): ≤ 15 min
Cl_F_obs ([2]; ip, single dose 100 μg/g): 1.46 mL/min/g and 1.46 ± 0.26 mL/min/g
Vz_F_obs ([2]; ip, single dose 100 μg/g): 47.71 mL/g and 47.71 ± 33.25 mL/g
half-life ([2]; ip, single dose 100 μg/g): 22.46 ± 17.81 min
overt toxicity ([2]; single dose 100 μg/g ip): no overt toxicity
time at which peak plasma concentration was achieved ([2]; single dose 100 μg/g, route not given): 20 to 30 min
IC50 [3]: 125 µg/mL (≈ 443 µM)
gross adverse effects ([4]; multi-dose analysis): no gross adverse effects
maximum plasma concentration ([4]; two 51-μg/g doses per day four hours apart for three days): 2.12 µg/mL
IC50 [5]: 125 µg/mL (≈ 443 µM)
MIC50 [6]: 1 µg/mL (≈ 3.54 µM)
MIC90 [6]: 2 µg/mL (≈ 7.08 µM)
IC50 [7]: 125 µg/mL (≈ 443 µM)
IC50 [8]: 125 µg/mL (≈ 443 µM)
solubility with Solutol HS 15/PBS solution ([9]; Solutol HS 15/PBS solution): less than 10%
solubility ([9]; aqueous buffer, PBS, read-out: Solubility in PBS): < 0.1 µg/mL
solubility ([9]; aqueous with cosolvent or surfactant or cyclodextrin, 20% Solutol HS 15/80% PBS, read-out: Solubility in 20% Solutol HS 15/80% PBS): 4600 µg/mL (≈ 16300 µM)
solubility ([9]; organic solvent or mixture, PEG 400, read-out: Solubility in PEG 400): 9200 µg/mL (≈ 32600 µM)
adverse effects / overt toxicity after single dose ([10]; 2000 mg/kg IP single dose, two-week time frame, 2000 mg/kg): non-toxic; also recorded: did not exhibit gross toxicity
overt toxicity after repeat dose ([10]; repeat dose of 2000 mg/kg a week after initial 2000 mg/kg): no overt toxicity was observed
fraction unbound [11]: 0.156
concentration at 15 min ([12]; after 15 min): 86 ng/mL
concentration at 75 min ([12]; after 75 min): 27 ng/mL
concentration at 15 min ([13]; BALB/c, mouse, plasma, 100 μg/g, mice, two-week oral administration, after 15 min): 144 ng/mL
concentration at 75 min ([13]; BALB/c, mouse, plasma, 100 μg/g, mice, two-week oral administration, after 75 min): 10 ng/mL
weight loss of treated mice ([13]; multi-dose oral, after two-days): about 1.5%
weight increase of treated mice ([13]; multi-dose oral, day 9): 5.16%
weight increase of treated mice ([13]; multi-dose oral, day 12): 9.75%
IC50 [14]: 125 µg/mL (≈ 443 µM)

COc1cc(/C=C/c2ccc(O)cc2)cc(OC)c1 [pterostilbene]
half-lives in animal plasma ([15]; animal plasma): 120 min
plasma concentrations ([15]; animals): < 8 µg/mL
toxicity at high doses ([16]; mice, rats, and humans): non-toxic

Oc1ccc(/C=C/c2cc(O)cc(O)c2)cc1 [resveratrol]
half-lives in animal plasma ([15]; in vivo): 15 to 60 min
toxicity at high doses ([16]; in vivo): non-toxic
